# Experimental data published in patent publication US7589080B2, “β-cyclodextrin compositions, and use to prevent transmission of sexually transmitted diseases” (priority 2000, dated 2009).
# Legend:
# CCR5 = assay: Flow cytometry of CCR5 expression on primary T cells; format: cell-based; conditions: primary T cells after treatment (19% before)
# Protocol: Flow cytometry was performed as previously described (Orentas and Hildreth, supra, 1993). Briefly, 2×10^5 2-OH-βCD treated or untreated cells in 100 μl PBS containing 5% normal goat serum (NGS) were added to 100 μl of MAb (1-5 μg) and incubated 30 min on ice. In comparative experiments we prefixed the cells with 2% paraformaldehyde in PBS immediately after 2-OH-βCD treatment. Cells were washed with PBS, resuspended in 100 μl of PBS, 5% NGS containing 2 Tg of FITC conjugated-goat anti-mouse IgG (FITC-GAM) and incubated 1 h on ice. Cells were then washed with PBS and fixed with 2% paraformaldehyde followed by analysis on an EPICS Profile II flow cytometer.
# Cholesterol depletion also promoted CXCR4 down-modulation by MAb-induced internalization. A possible explanation for the inhibition of syncytium formation by cholesterol depletion as described above is that CD4, CRs, or both are lost from the cell surface, for example, by extrusion from the membrane in vesicles after loss of cholesterol, or they could be internalized. To explore these possibilities, βCD treated cells were examined for expression of HIV receptors by flow cytometry. […] In contrast, cell surface expression of CXCR4 was reduced by 50% or more in all of the cells after 2-OH-βCD treatment (Table 1).
# HIV-1RF = assay: Free-virus mediated syncytium assay (fusion from without); format: cell-based; conditions: MT2, SupT1, PM1; HIV-1RF >500 ng/ml p24, 3 hr at 37° C
# Protocol: Syncytium assays were carried out essentially as previously described (Hildreth and Orentas, supra, 1989). Briefly, cell lines or PHA blasts were treated with 20 mM 2-OH-βCD in RPMI 1640 or medium alone for 1 hr at 37° C. before washing twice with PBS. The treated cells were then mixed with HIV-1 infected cells, each at density of 2×10^6/ml, in cRPMI and incubated at 37° C. Syncytia were scored and photographed 3 to 6 hr after mixing. For free-virus mediated syncytium assays (“fusion from without”), HIV-1RF from infected PM1 culture supernatants were clarified by 0.45 Tm filtration (p24 concentration greater than 500 ng/ml). 2-OH-βCD-treated and non-treated cell lines were added to the virus preparations and incubated at 37° C. for 3 hr before counting syncytia.
# The effect of cholesterol depletion on virus-cell fusion (“fusion from without”) was also determined.
# HSV-2 strain G = assay: HSV mouse vaginal challenge model; format: in vivo, CD-1 mice; conditions: HSV-2 preincubated with 3%, intravaginal 1×10^4 TCID50; p=0.022
# Protocol: The ability of 2-OH-βCD to reduce the infectiousness of HIV-1 (Examples 2 and 3) led to an investigation as to the general applicability of βCDs to prevent the transmission of other sexually transmitted enveloped viruses. A well characterized HSV mouse vaginal challenge model was used to examine the effect of 2-OH-βCD on HSV-2 infection (Sherwood et al., supra, 1996). Adult female CD-1 mice (Charles River Breeding Laboratories; Wilmington Mass.) were injected subcutaneously with Depo-Provera® progestin (2 mg) to increase their sensitivity, then one week later the mice were inoculated intravaginally with 1×10^4 TCID50 of cell-free HSV-2 strain G (10 ID50) using a WIRETROL capillary micropipette (Drummond Scientific; Broomall Pa.). Infection was confirmed by lavage culture on newborn foreskin fibroblast cells (Biowhitaker). Prior to inoculation, HSV-2 was preincubated either with 3% 2-OH-βCD or with buffer.
# [1] = test system: LFA-1 binding to ICAM-1 triggered through CXCR4; assay: SDF-1α-induced cell adhesion assay; format: cell-based; conditions: Jurkat cells treated with 20 mM
# Protocol: Cell adhesion assays were carried out essentially as previously described (Liao et al., supra, 2000). The wells of 96 well plates were coated with recombinant ICAM-Ig and blocked as described. Jurkat cells were labeled with horseradish peroxidase (HRP) and treated with either 20 mM 2-OH-βCD or medium alone as described above. The cells were then washed and resuspended in cRPMI at a density of 2×10^6/ml. One hundred Tl of cells were added to the wells along with cRPMI alone or medium containing 10 ng/ml of SDF-1α. The wells were incubated at 37° C. for various times before washing to remove unbound cells. Bound cells were lysed and HRP measured as described previously. A standard curve was generated by from known numbers of labeled cells lysed and quantitated by measuring HRP.
# Loss of CXCR function in regulating LFA-1 could also explain the lower binding of HIV-1 to βCD-treated cells observed previously (Liao et al., supra, 2000; Orentas and Hildreth, supra, 1993). […] The ability of βCD treatment of cells to affect control of LFA-1 function by CXCR4 also was examined. Jurkat cells were treated with 2-OH-βCD or medium alone, then were added to the wells of culture plates coated with soluble recombinant ICAM-Ig. SDF-1, a CXCR4-specific chemokine that triggers LFA-1 function, was added to trigger binding of LFA-1 to ICAM-1. […]
# HIV-1 = assay: Virus production and infectivity of virions from cholesterol-depleted cells; format: cell-based
# Protocol: PM1 cells chronically infected with HIV-1RF were washed and treated with 20 mM 2-OH-βCD in cRPMI or with cRPMI alone for 1 hr at 37° C. The cells were then washed twice before resuspension at a density of 5×10^6/ml in cRPMI. The cells were incubated for 6 hrs at 37° C., 5% CO2 and pelleted by centrifugation. Supernatants, which contained the virus, were collected and purified by centrifugation through a 20% sucrose cushion (Liao et al., supra, 2000). The virus pellets were taken up in cRPMI and titrated against LuSIV cells to determine infectivity. P24 was measured in a standard p24 ELISA.
# The effect of 2-OH-βCD on infectivity of HIV was measured in a Luciferase-based single cycle infection assay as previously described (Liao et al., supra, 2000). LuSIV cells were treated with 20 mM 2-OH-βCD in iRPMI or iRPMI alone for 1 hr at 37° C. Cells were then washed with iRPMI before being resuspended in cRPMI at a density of 2×10^6/ml. Cells in 100 Tl were mixed with cRPMI or with dilutions of virus supernatant (62 to 500 pg/ml of p24) from 2-OH-βCD-treated or untreated PM1 cells and allowed to incubate overnight (16 hr) at 37° C. […] After centrifugation at 13,000×g for 30 seconds, 10, μl of lysate were added to 100 μl Luciferase Reagent (Promega) in an opaque 96 well plate and luminescence was measured on a Packard Lumicount luminometer (Downers Grove, Ill.).
substance,measurement,setting,value
2-hydroxypropyl-β-cyclodextrin [2-OH-βCD],"CCR5 expression, cells staining positive",CCR5,8%
same,Syncytium formation on exposure to free virus,HIV-1RF,no syncytium formation
same,Mice that became infected,HSV-2 strain G,5 of 10
same,Binding of Jurkat cells to ICAM-Ig after exposure to SDF-1,[1],no binding to ICAM-Ig
same,Infectivity of virions from cholesterol-depleted cells,HIV-1,significantly less infectious
same,Production of HIV-1 virions from cholesterol-depleted cells,HIV-1,dramatically decreased
